Source: paper PMC9323955, “Synthesis and Evaluation of Small Molecule Drug Conjugates Harnessing Thioester-Linked Maytansinoids” (Pharmaceutics, 2022)

How the values were obtained:
[1] = system: HCC1806 triple-negative breast cancer cells; assay: MTS cell viability assay (72 h); assay type: cell-based, human; conditions: Homo sapiens, HCC1806; 72 h incubation, MTS; read-out: IC50, cytotoxicity against HCC1806 cells
Protocol: HCC1806 cells were grown in RPMI 1640 medium, and MTS assays were performed to check cell viability. Cells (2500–3000 cells/well) were grown in flat-bottomed 96-well plates for 24 h, and then serial dilutions of the compound were added, and cells were allowed to incubate for a further 72 h. At the end of the 72-h incubation period, the medium was removed, and 100 μL of a solution including a mixture of MTS and PMS was added. The cells were incubated for 1.5 h at 37 °C in a humidified incubator with 5% CO2 to allow viable cells to convert tetrazolium salts to formazan. Conversion to formazan was measured by absorbance (490 nm) using a BioTek PowerWave-X absorbance microplate meter. The data collected were normalized using a DMSO-treated control (100% viability) and a background control (0% viability) to verify growth inhibition.

[2] = system: HCC1806 human triple-negative breast cancer tumors; assay: HCC1806 xenograft tumor efficacy; assay type: in vivo, female nude mice; conditions: 0.3 mg/kg i.v. twice weekly for 2 weeks
Protocol: Cancer cells suspended in RPMI 1640 medium (11835-030, Thermo Fisher Scientific, Waltham, MA, USA) were mixed with Matrigel™ (356237, BD Biosciences, Franklin Lakes, NJ, USA) in a 1:1 ratio. Human triple-negative breast cancer HCC1806 (1 × 10^6 cells) cells were inoculated subcutaneously into the left flank of 6-week-old female nude mice (BioLASCO Taiwan, Taipei, Taiwan) using a 1 mL syringe with a 24G needle (AN-2425R, Terumo Medical Corp., Tokyo, Japan). Tumor dimensions were measured twice weekly using electronic calipers (FOW54-200-777, PRO-MAX), and the volume of tumor grown subcutaneously (mm^3) was calculated by the formula Volume = (length × width^2)/2. A combination of 10% DMA/20% Cremophor EL/70% 5% dextrose injection (D5W) was formulated to treat HCC1806 xenograft tumors. Mice with HCC1806 tumors were grouped and administered the indicated dosing regimen of 1 mg/kg for the conjugate and 0.3 mg/kg for the cytotoxic payloads DM1 and DM4 twice-weekly (day 1 and day 4) for 2 weeks when the mean tumor volume was approximately 200–250 mm^3 or 850–900 mm^3 (large tumors). The conjugate dose of 2 mg/kg was administered weekly for the large tumor study. The body weight and tumor volume of mice were measured twice weekly. In addition, a previously reported oncogene-induced, sorafenib-resistant HCC mouse model was used in the current study to examine the antitumor activities of synthesized compounds. Briefly, plasmids including transposase (pCMV(CAT)T7-SB100), human Akt1, and luciferase (pKT2/CLP-AKT-2A-OVA-HBc-HBs-LUC) and the N-Ras V12 mutant (pT/Caggs-NRASV12) were hydrodynamically injected (HDI) and the liver was monitored for the appearance of HCC. HCC mice with a total flux of more than 1 × 10^9 photons/s from IVIS imaging were used as treatment conjugates. The indicated conjugate was administered intravenously at 1 mg/kg 3 times per week over 2 weeks. IVIS imaging was repeatedly performed to follow tumor progression, and tumor tissue from treated HCC mice was collected for histological examination and RNA extraction after administration.

[3] = PS SPR binding assay (Biacore T200, L1 chip); conditions: DOPC/DOPS (3:1, v/v) liposomes on L1 chip, 25 °C
Protocol: Phospholipids, 1,2-dioleoyl-sn-glycero-3-phosphocholine (DOPC) and 1,2-dioleoyl-sn-glycero-3-[phosphate-L-serine] (DOPS) were obtained as chloroform solutions from Avanti Polar Lipids (Alabaster, AL, USA). These stock solutions were mixed in the specified proportions. A 0.4 mL aliquot of the lipid solution at a 10 mg/mL concentration was added to a round bottom flask and evaporated under a stream of N2 to provide a thin lipid film. The lipid films were rehydrated in PBS buffer for at least 1 h at room temperature. The resulting suspension was extruded through a 100 nm polycarbonate filter using an Avanti MiniExtruder according to the manufacturer’s instructions. Zeta potential (ZP) and liposome size distribution were recorded by dynamic light scattering (DLS) and microelectrophoresis using a Zetasizer Nano ZS instrument. The binding kinetics between conjugates and liposomes were recorded at 25 °C using a Biacore T200 biosensor equipped with an L1 sensor chip (GE Healthcare, Chicago, IL, USA). The new sensor chip was pretreated with running buffer (5% DMSO in phosphate buffered saline (PBS) at a pH of 7.4) and two consecutive 30 s pulses of 2:3 v/v 50 mM HCl/isopropanol at a flow rate of 30 μL/min. New liposome capture plates were prepared for each binding cycle. In PBS buffer, liposomes are diluted to 0.5–1 mM and captured to saturation in isolated flow cells at 2–5 μL/min (30–150 s). […]

[4] = Plasma stability, 24 h incubation with plasma (HPLC); assay type: in vitro ADME
Protocol: Zn8_DM1: 0H VS. 24H in plasma.
Zn10_DM4: 0H VS. 24H in plasma.
Supporting Figure S1. Incubation of Linker-drug 3 and 4, conjugates Zn8_DM1 and
Zn10_DM4, DM1 and DM4 with plasma for 24 hrs. HPLC condition is listed below. […]

| Compound | IC50 [1] [nM] | anti-HCC1806 tumor growth activity of free payload [2] | association with PS-coated liposomes (SPR) [3] | cleavage of the maytansinoid after incubation with plasma [4] |
| --- | --- | --- | --- | --- |
| COc1cc2cc(c1Cl)N(C)C(=O)CC(OC(=O)C(C)N(C)C(=O)CCC(C)(C)S)C1(C)OC1C(C)C1CC(O)(NC(=O)O1)C(OC)C=CC=C(C)C2 [DM4, (14R,16R,33R,2S,4S,10E,12Z,14S)-86-chloro-14-hydroxy-85,14-dimethoxy-33,2,7,10-tetramethyl-12,6-dioxo-7-aza-1(6,4)-oxazinana-3(2,3)-oxirana-8(1,3)-benzenacyclotetradecaphane-10,12-dien-4-yl N-(4-mercapto-4-methylpentanoyl)-N-methyl-D-alaninate, reference compound] | 7 | marginal improvement in its antitumor activity |  |  |
| COc1cc2cc(c1Cl)N(C)C(=O)C[C@H](OC(=O)[C@H](C)N(C)C(=O)CCS)[C@]1(C)O[C@H]1[C@H](C)[C@@H]1C[C@@](O)(NC(=O)O1)[C@H](OC)/C=C/C=C(\C)C2 [DM1, (14S,16S,32R,33S,2R,4S,10E,12E,14R)-86-chloro-14-hydroxy-85,14-dimethoxy-33,2,7,10-tetramethyl-12,6-dioxo-7-aza-1(6,4)-oxazinana-3(2,3)-oxirana-8(1,3)-benzenacyclotetradecaphane-10,12-dien-4-yl N-(3-mercaptopropanoyl)-N-methyl-D-alaninate, reference compound] | 21 |  | did not show association properties |  |
| COc1cc2cc(c1Cl)N(C)C(=O)C[C@H](OC(=O)[C@H](C)N(C)C(=O)CCSC(=O)c1ccc(CN(CCOCCOCCNC(=O)OC(C)(C)C)C(=O)C3(c4ccc(Cl)cc4)CCCCC3)cc1)[C@]1(C)O[C@H]1[C@H](C)[C@@H]1C[C@@](O)(NC(=O)O1)[C@H](OC)/C=C/C=C(\C)C2 [compound 3, (14R,16R,33R,2S,4S,10E,12Z,14S)-86-Chloro-14-hydroxy-85,14-dimethoxy-33,2,7,10-tetramethyl-12,6-dioxo-7-aza-1(6,4)-oxazinana-3(2,3)-oxirana-8(1,3)-benzenacyclotetradecaphane-10,12-dien-4-yl N-(3-((4-(2-(1-(4-chlorophenyl)cyclohexane-1-carbonyl)-14,14-dimethyl-12-oxo-5,8,13-trioxa-2,11-diazapentadecyl)benzoyl)thio)propanoyl)-N-methyl-L-alaninate] |  |  |  | No cleavage |
| COc1cc2cc(c1Cl)N(C)C(=O)CC(OC(=O)C(C)N(C)C(=O)CCC(C)(C)SC(=O)c1ccc(CN(CCOCCOCCNC(=O)OC(C)(C)C)C(=O)C3(c4ccc(Cl)cc4)CCCCC3)cc1)C1(C)OC1C(C)C1CC(O)(NC(=O)O1)C(OC)C=CC=C(C)C2 [compound 4, (14R,16R,33R,2S,4S,10E,12Z,14S)-86-Chloro-14-hydroxy-85,14-dimethoxy-33,2,7,10-tetramethyl-12,6-dioxo-7-aza-1(6,4)-oxazinana-3(2,3)-oxirana-8(1,3)-benzenacyclotetradecaphane-10,12-dien-4-yl N-(4-((4-(2-(1-(4-chlorophenyl)cyclohexane-1-carbonyl)-14,14-dimethyl-12-oxo-5,8,13-trioxa-2,11-diazapentadecyl)benzoyl)thio)-4-methylpentanoyl)-N-methyl-D-alaninate] |  |  |  | No cleavage |
